Measurements: ChEMBL document CHEMBL1130154, “Molecular modeling and 3D-QSAR studies on the interaction mechanism of tripeptidyl thrombin inhibitors with human alpha-thrombin” (J Med Chem, 1997)
Square brackets hold non-standard residues; d marks the D form. Peptide text beside a SMILES is read from it. Tic = O=C(O)[C@@H]1Cc2ccccc2CN1

Molecular target: Prothrombin (Homo sapiens, UniProt P00734)
Test: In vitro inhibitory activity against human Prothrombin

Row | Compound | IC50
1 | N=C(N)NCCC[C@@H](C=O)NC(=O)[C@@H]1CCCN1C(=O)[C@@H]1Cc2ccccc2CN1 (H-[Tic]-Pro-Arg-aldehyde) | 25 nM
2 | N=C(N)NCCC[C@@H](C=O)NC(=O)[C@@H]1CCCN1C(=O)[C@H]1NCCc2ccccc21 | 19 nM
3 | C[C@@H](C(=O)N1CCC[C@H]1C(=O)N[C@H](C=O)CCCNC(=N)N)c1ccccc1 | 94 nM
4 | CC(C)(C)OC(=O)NC(C(=O)N1CCC[C@H]1C(=O)N[C@H](C=O)CCCN=C(N)N)c1cccc2ccccc12 (stereo in doubt; 12) | 55 nM
5 | CO[C@@H](C(=O)N1CCC[C@H]1C(=O)N[C@H](C=O)CCCN=C(N)N)c1ccccc1 | 250 nM
6 | C[C@H](C(=O)N1CCC[C@H]1C(=O)N[C@H](C=O)CCCNC(=N)N)c1ccccc1 | 5100 nM
7 | CC[C@@H](C(=O)N1CCC[C@H]1C(=O)N[C@H](C=O)CCCNC(=N)N)c1ccccc1 | 130 nM
8 | CC(C)(C)OC(=O)NC(C(=O)N1CCC[C@H]1C(=O)N[C@H](C=O)CCCN=C(N)N)c1cccc2ccccc12 (stereo in doubt; 13) | 85 nM

Other lines, results leading:

Row | IC50 | Compound
9 | 18 nM | CC(C)(C)OC(=O)N[C@@H](C(=O)N1CCC[C@H]1C(=O)N[C@H](C=O)CCCNC(=N)N)c1ccc2ccccc2c1
10 | 27 nM | CC(C)(C)OC(=O)N[C@@H](C(=O)N1CCC[C@H]1C(=O)N[C@H](C=O)CCCN=C(N)N)c1cccc(C(F)(F)F)c1
11 | 23 nM | CC(C)(C)OC(=O)N[C@@H](C(=O)N1CCC[C@H]1C(=O)N[C@H](C=O)CCCNC(=N)N)c1cccc2ccccc12
